In ChEMBL document CHEMBL2057087, “Design, synthesis and vasodilative activity of tanshinone IIA derivatives” (2012):

These compounds were tested on Aorta (assay: Vasodilatory activity in Wistar rat thoracic aorta rings assessed as inhibition of norepinephrine hydrochloride-induced contraction at 1 X 10 '-4 M).
Type: functional
With `Cc1coc2c1C(=O)C(=O)c1c-2ccc2c1CCCC2(C)C` [TANSHINONE IIA] the inhibition at 100 µM was 1.86%.
For `COc1ccccc1C(=O)OC1CCC(C)(C)c2ccc3c(c21)C(=O)C(=O)c1c(C)coc1-3` (stereo not given), the inhibition at 100 µM was 7.58%.
With `Cc1coc2c1C(=O)C(=O)c1c-2ccc2c1C(OC(=O)c1ccc(O)cc1)CCC2(C)C` (stereo not given) the inhibition at 100 µM was 9.39%.
`Cc1coc2c1C(=O)C(=O)c1c-2ccc2c1C(OC(=O)Cc1ccc(F)cc1)CCC2(C)C` (stereo not given) was tested, and the inhibition at 100 µM was -13.3%.
In the case of `COc1cccc(CC(=O)OC2CCC(C)(C)c3ccc4c(c32)C(=O)C(=O)c2c(C)coc2-4)c1` (stereo not given), the inhibition at 100 µM is reported as 29.4%.
With `Cc1coc2c1C(=O)C(=O)c1c-2ccc2c1C(OC(=O)Cc1ccccc1)CCC2(C)C` (stereo not given) the inhibition at 100 µM was -17.8%.
Compound `COc1ccccc1CC(=O)OC1CCC(C)(C)c2ccc3c(c21)C(=O)C(=O)c1c(C)coc1-3` (stereo not given) has an inhibition at 100 µM of 12.8%.
With `Cc1coc2c1C(=O)C(=O)c1c-2ccc2c1C(OC(=O)Cc1ccccc1F)CCC2(C)C` (stereo not given) the inhibition at 100 µM was 1.92%.
`Cc1coc2c1C(=O)C(=O)c1c-2ccc2c1C(OC(=O)c1cccc(F)c1)CCC2(C)C` (stereo not given) showed an inhibition at 100 µM of -3.59%.
`Cc1coc2c1C(=O)C(=O)c1c-2ccc2c1C(OC(=O)c1ccccc1O)CCC2(C)C` (stereo not given) was tested, and the inhibition at 100 µM was 22.4%.
For `Cc1coc2c1C(=O)C(=O)c1c-2ccc2c1C(OC(=O)Cc1ccccc1O)CCC2(C)C` (stereo not given), the inhibition at 100 µM was -0.37%.
With `Cc1coc2c1C(=O)C(=O)c1c-2ccc2c1C(OC(=O)c1cccc(O)c1)CCC2(C)C` (stereo not given) the inhibition at 100 µM was 19.1%.
`COc1cccc(C(=O)OC2CCC(C)(C)c3ccc4c(c32)C(=O)C(=O)c2c(C)coc2-4)c1` (stereo not given) showed an inhibition at 100 µM of -0.25%.
`Cc1coc2c1C(=O)C(=O)c1c-2ccc2c1C(OC(=O)Cc1ccc(O)cc1)CCC2(C)C` (stereo not given) gave an inhibition at 100 µM of -1.67%.
`COc1ccc(CC(=O)OC2CCC(C)(C)c3ccc4c(c32)C(=O)C(=O)c2c(C)coc2-4)cc1` (stereo not given) was tested, and the inhibition at 100 µM was 20.2%.
Work on `Cc1coc2c1C(=O)C(=O)c1c-2ccc2c1C(OC(=O)c1ccccc1)CCC2(C)C` (stereo not given) yielded an inhibition at 100 µM of -9.41%.
Compound `COc1ccc(C(=O)OC2CCC(C)(C)c3ccc4c(c32)C(=O)C(=O)c2c(C)coc2-4)cc1` (stereo not given) has an inhibition at 100 µM of 23.5%.
Work on `Cc1coc2c1C(=O)C(=O)c1c-2ccc2c1C(OC(=O)c1ccc(F)cc1)CCC2(C)C` (stereo not given) yielded an inhibition at 100 µM of -3.3%.
`Cc1coc2c1C(=O)C(=O)c1c-2ccc2c1C(OC(=O)Cc1cccc(O)c1)CCC2(C)C` (stereo not given) was tested, and the inhibition at 100 µM was -4.92%.
`Cc1coc2c1C(=O)C(=O)c1c-2ccc2c1C(OC(=O)c1ccccc1F)CCC2(C)C` (stereo not given) showed an inhibition at 100 µM of 21.8%.
In the case of `Cc1coc2c1C(=O)C(=O)c1c-2ccc2c1C(OC(=O)Cc1cccc(F)c1)CCC2(C)C` (stereo not given), the inhibition at 100 µM is reported as -2.78%.

The compounds below were run on Aorta (assay: Vasodilatory activity in Wistar rat thoracic aorta rings assessed as inhibition of norepinephrine hydrochloride-induced contraction).
Type: functional, tissue-based
For `COc1cccc(CC(=O)OC2CCC(C)(C)c3ccc4c(c32)C(=O)C(=O)c2c(C)coc2-4)c1` (stereo not given), the inhibition was “Dose-dependent effect”.
`Cc1coc2c1C(=O)C(=O)c1c-2ccc2c1C(OC(=O)c1ccccc1O)CCC2(C)C` (stereo not given) was tested, and the inhibition was “Dose-dependent effect”.
`COc1ccc(C(=O)OC2CCC(C)(C)c3ccc4c(c32)C(=O)C(=O)c2c(C)coc2-4)cc1` (stereo not given) was tested, and the inhibition was “Dose-dependent effect”.
For `Cc1coc2c1C(=O)C(=O)c1c-2ccc2c1C(OC(=O)c1ccccc1F)CCC2(C)C` (stereo not given), the inhibition was “Dose-dependent effect”.
